These are literature values, as cited in patent US10471038B2, “Inhibitor of muscle damage or muscle fatigue” ([…] LABORATORY, CO., LTD., priority 2015, dated 2019).

This series concerns calpain. The following applies: mdx mice, intramuscular injection.

As to `CC(=O)N[C@@H](CC(C)C)C(=O)N[C@@H](CC(C)C)C(=O)N[C@H](C=O)CCCNC(=N)N` [leupeptin], the “activation of calpain in muscle tissue and muscle breakdown” value is reported as “inhibited”.
